Results on four compounds are retold here after patent publication US6911460B2, “Antiviral agents and methods of treating viral infections” (Vion Pharmaceuticals, Inc., priority 2001, dated 2005).

Molecules are shown by their SMILES. A value given as a limit tells only on which side of the number the result lay.

One data set concerns HSV-1 (KOS). Kind of data set: Virus yield assay, Triapine plus acyclovir against HSV-1. To be noted: for EC90: virus yield assay, 48 hr, combinations: ACV with fixed Triapine concentration. Type of data set: cell-based, herpes simplex virus. Here is the method: (§1) To evaluate the antiviral activities of Triapine, acyclovir, and combination thereof, HeLa S3 cells are seeded in 25-cm^2 flasks and are used as host cells for virus infection (laboratory strains of virus HSV-1, HSV-2, wild type (Darby et al., (1982) Nature, 289, 81-3; Cheng, et al., Antimicrob. Agents Chemother. 18, 957-61, 1980). After a 1-hr adsorption period with virus at 5-10 plaque-forming units per cell, the monolayers are rinsed with phosphate-buffered saline, followed by the addition of 5 ml of growth medium containing various concentrations of drug. Concentrations of Triapine tested range from 0.1 to 1.0 micromolar where concentrations of acyclovir are from 1-50 micromolar. The cells are incubated at 37° C. for 48 hr and then are stored frozen at −70° C. until titration. The amounts of HSV contained in cells are determined with Vero cells using the methods described by Cheng et al. (Cheng, et al., Antimicrob. Agents Chemother. 18, 957-61, 1980).
(§2) The results of the above-test are presented in the following Table 1, below, which presents the antiviral activity of Triapine, at low, non-toxic clinically achievable concentrations of 0.3, 0.6 and 1.0 μM, in combination with acyclovir against HSV-1 (KOS) and HSV-2 (333) strains of herpes simplex virus in a virus yield assay. […] A greater than 4-fold decrease in the EC90 of ACV against HSV-2 is observed with 0.6 μM Triapine.

Another data set relates to HSV-2 (333). Kind of data set: Virus yield assay, Triapine plus acyclovir against HSV-2. The format is cell-based, herpes simplex virus. The note with it: for EC90: virus yield assay, 48 hr, combinations: ACV with fixed Triapine concentration. Here is the method: as §1, §2
Data set [1] deals with acyclovir-resistant HSV strains. The note with it: in combination with acyclovir; cited from earlier work.
A further data set concerns strain IIIB of HIV. Kind of data set: Anti-HIV activity of Triapine combinations in HIV-infected MT-2 cells (MTT, isobolograms). The format is cell-based, HIV-1. To be noted: FIG. 4.
Details of data set [2]: dose or concentration left out as unconfirmed. To be noted: cancer patients, 96-hour infusion; cited from earlier work.
Data set [3] is described as follows: Solubility in aqueous solution.
Another data set concerns HIV-infected cells. The note with it: combined with 2′,3′-dideoxyinosine (DDI); cited from earlier work.

Description for strain IIIB of HIV: MT-2 cells infected with strain IIIB of HIV (wildtype, 3TC resistant, or AZT resistant) are used for determining antiviral activities (Bridges et al., Biochem. Pharmacol. Vol. 51, 731-36, 1996). Cells are infected with virus at a multiplicity of infection of 0.1 TCID50/ml and added to wells containing serial 2-fold dilutions of drugs. MT-2 cells in RPMI 1640 medium supplemented with 10% dialyzed fetal bovine serum and 100 μg/mL Kanamnycin are infected with virus and immediately added to serial dilutions of the drugs. After 5 days, 20 μL of MTT dye (2.5 mg/mL in PBS) is added per well. At the end of the 4-h incubation period, 150 μL of acidified 2-propanol with 2% NP-40 nonionic detergent is added per well. After the crystals of dye are dissolved (usually 1-2 days), the plates are read on a microplate reader. Using this MTT-dye reduction method (Larder et al., (1990), Antimicrob. Agents Chemother. 34, 436-41), the percentage of protection can be calculated from the formula [(a−b)/(c−b)×100] in which a is the A595 of drug-treated virus-infected wells, b is the A595 of no-drug infected cells, and c is the A595 of the no-drug uninfected cells. The EC50 was calculated from linear log 10 plots of the percentage protection verses inhibition concentration.
Using the above-described experimental system, the ability of Triapine to potentiate the anti-HIV activity of the dideoxynucleoside analogs ddI (2′,3′-dideoxyinosine), D4T (2′,3′-dideoxydidehydrothymidine) and AZT (3′-azidothymidine) was examined in HIV-infected MT-2 cells (as described above).

In the case of `Nc1nc2c(ncn2COCCO)c(=O)[nH]1` [ACV, acyclovir], the “decrease of the EC90 of ACV” value with HSV-1 (KOS) (HSV-1, in the presence of 0.3 μM Triapine) is reported as 10 fold; in the data set with HSV-1 (KOS) (HSV-1, in the presence of 0.6 μM Triapine), “greater than 24 fold”. In addition, the figures for the EC90 in the data set on HSV-1 (KOS) (Human alphaherpesvirus 1) and with HSV-2 (333) (Human alphaherpesvirus 2) were 29.3 µM and 36.5 µM, respectively. In the data set with HSV-2 (333) (HSV-2, with 0.6 μM Triapine), the “decrease in the EC90 of ACV” value is “greater than 4 fold”.
For the compound `CC[C@@H](NC(=O)[C@@H](CC(=O)[C@@H](CC(=O)[C@@H](NC(=O)[C@H](C(C)C)N(C)C(=O)[C@H](C)CC1CCCCC1)C(C)(C)C)CC(=O)C(C)(C)C)C1(C(=O)O)CCCC1)C(C)(C)C` [BILD1633 SE], the “activity against acyclovir-resistant HSV strains” value in data set [1] is listed as “had activity”.
For the compound `NC(=S)NN=Cc1ncccc1N` [Triapine, 3-aminopyridine-2-carboxyaldehyde thiosemicarbazone], the EC90 in the data set with HSV-1 (KOS) and in the data set with HSV-2 (333) was more than 1 µM each time. Besides, the results for the “anti-HIV interaction (isobologram)” value in the data set on strain IIIB of HIV (combined with AZT), with strain IIIB of HIV (combined with D4T) and with strain IIIB of HIV (combined with ddI) were “additive”, “synergistic” and “synergistic”, respectively. Besides, the “concentration of Triapine reached” value in data set [2] was 1000 nM. Further, the “solubility in aqueous solution” value in data set [3] is “less than 0.1 mg/ml”.
With `NC(=O)NO` [hydroxyurea], the “effects against HIV-infected cells in combination” value in the data set with HIV-infected cells was “synergistic effects”.
